Experimental data: US20220348590A1, “CYCLOOXYGENASE-2 INHIBITORS AND USES THEREOF” (The Board Institute, Inc., priority 2019, published 2022)
In brackets after ≈: the same amount, converted by molar mass. Where two headings read alike, the source gives them in different places.

Assays:
[1] = biological target: T1, human recombinant COX2 (hCOX2) (UniProt P35354); assay: LCMS-based COX2 enzymatic inhibition assay (PGE2 quantification); assay type: biochemical; design: COX2 2 minutes pge2/pge2d4 area ratio Avg; other: 2 minutes; readout pge2/pge2d4 area ratio; average; COX2 2 minutes pge2/pge2d4 area ratio Avg; LLE; average LLE; COX2 2 minutes pge2 area (counts) Avg; readout pge2 area (counts); other: 2 min; "ovine COX2 (oCOX2), human recombinant COX2 (hCOX2)"; details: for COX2 2 minutes pge2/pge2d4 area ratio Avg. LLE / COX2 2 minutes pge2 area (counts) Avg. LLE / COX2 10 minutes pge2 area (counts) Avg. LLE: average LLE; for IC50: average
T1 sequence (P35354 1-604): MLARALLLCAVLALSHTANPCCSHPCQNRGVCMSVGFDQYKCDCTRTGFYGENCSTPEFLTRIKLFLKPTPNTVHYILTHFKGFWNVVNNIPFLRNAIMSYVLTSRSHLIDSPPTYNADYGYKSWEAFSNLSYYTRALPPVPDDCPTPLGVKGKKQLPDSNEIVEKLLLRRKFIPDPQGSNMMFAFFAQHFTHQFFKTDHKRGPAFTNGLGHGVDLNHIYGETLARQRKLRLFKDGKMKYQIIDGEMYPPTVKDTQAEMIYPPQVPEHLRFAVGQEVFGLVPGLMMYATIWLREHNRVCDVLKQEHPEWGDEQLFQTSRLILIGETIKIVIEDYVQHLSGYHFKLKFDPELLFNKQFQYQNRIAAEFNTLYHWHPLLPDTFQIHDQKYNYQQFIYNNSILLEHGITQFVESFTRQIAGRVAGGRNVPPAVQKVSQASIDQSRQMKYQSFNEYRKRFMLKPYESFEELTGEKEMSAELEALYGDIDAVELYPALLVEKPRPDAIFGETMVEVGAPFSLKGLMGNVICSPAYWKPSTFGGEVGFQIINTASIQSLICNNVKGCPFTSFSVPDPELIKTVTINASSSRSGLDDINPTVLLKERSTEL
Procedure, shortened: (§1)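 Ovine COX-1 (0.1 μg) or human recombinant COX2 (0.2 μg) in 100 mM Tris.HCl pH 8.0 with hematin and epinephrine, preincubated with inhibitor 10 min at 37 °C. Reaction with 5 μM arachidonic acid stopped after 2 min with HCl; PGE2 quantified by LC-MS-MS. IC50 from 12 concentrations in triplicate.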

[2] = Mouse Plasma Protein Stability (% Remaining); assay type: in vitro ADME; details: average
[3] = biological target: T2, ovine COX-1 (oCOX-1) (Ovis aries, UniProt P05979); assay: LCMS-based COX-1 enzymatic inhibition assay (PGE2 quantification); assay type: biochemical; details: for COX1 10 minutes pge2/pge2d4 area ratio Avg. LLE / COX1 10 minutes pge2 area (counts) Avg. LLE: average LLE
T2 construct: purchased Cayman Chemicals (Ann Arbor, Mich.)
T2 sequence (P05979 25-600): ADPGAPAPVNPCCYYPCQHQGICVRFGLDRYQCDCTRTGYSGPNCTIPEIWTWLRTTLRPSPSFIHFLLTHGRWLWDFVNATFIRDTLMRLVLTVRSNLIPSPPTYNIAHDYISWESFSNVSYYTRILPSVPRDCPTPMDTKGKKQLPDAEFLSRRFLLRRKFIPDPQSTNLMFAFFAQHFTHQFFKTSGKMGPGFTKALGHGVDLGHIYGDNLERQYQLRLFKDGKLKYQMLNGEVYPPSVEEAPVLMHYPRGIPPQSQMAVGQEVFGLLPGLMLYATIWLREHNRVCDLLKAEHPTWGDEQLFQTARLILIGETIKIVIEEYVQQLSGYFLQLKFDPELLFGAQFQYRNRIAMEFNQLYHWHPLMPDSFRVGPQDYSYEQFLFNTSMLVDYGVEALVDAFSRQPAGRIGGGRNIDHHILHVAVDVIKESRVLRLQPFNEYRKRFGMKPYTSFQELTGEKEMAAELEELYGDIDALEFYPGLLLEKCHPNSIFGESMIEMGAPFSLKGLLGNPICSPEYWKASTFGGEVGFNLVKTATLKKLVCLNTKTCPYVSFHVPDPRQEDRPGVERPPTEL
Procedure, shortened: as §1

[4] = Rat Plasma Protein Stability (% Remaining); assay type: in vitro ADME; details: average
[5] = rat plasma protein binding (PPB) assay; assay type: in vitro ADME; details: average, read-out: Rat Plasma Protein Binding % Bound Avg (converted)
Procedure: (§2) We have adapted a previously reported cyclooxygenase enzymatic assay utilizing LCMS quantification of PGE2 as the product of COX-1 and COX2 catalyzed conversion of arachidonic acid to evaluate the binding properties of newly synthesized ligands [Cao, 2011]. These optimized and miniaturized (384-well plates) LCMS-based COX-1 and COX2 enzymatic assays enabled us to quickly evaluate newly synthesized ligands for COX2 binding affinity and selectivity vs COX-1. Using a shorter ligand-enzyme incubation time in the LCMS assay (2 minutes vs 10 minutes) also permitted us to prioritize ligands with faster binding kinetics. Considering the relatively slow on-rate kinetics of known coxibs, due to their 3-step binding mechanism [Marnett, 2009], we believe that optimizing this critical parameter will be key to the successful development of a COX2 PET tracer. Using these enzymatic assays, we have evaluated>200 newly synthesized ligands against COX2 and >20 ligands against COX-1. Another critical property necessary for a good PET radiotracer is to have low non-specific binding (NSB) to increase the free fraction and maximize the signal to noise ratio. This property can be evaluated using in-vitro protein binding assays, and we have now evaluated>50 newly synthesized ligands in mouse, rat and human plasma protein binding (PPB) assays as well as >15 ligands in a mouse brain protein binding (BPB) assay.

[6] = Human Microsome Stability; assay type: in vitro ADME; details: human microsomes
[7] = mouse plasma protein binding (PPB) assay; assay type: in vitro ADME; details: average, read-out: Mouse Plasma Protein Binding % Bound Avg (converted)
Procedure: as §2

[8] = PBS Solubility (no DMSO); assay type: physicochemical; details: aqueous buffer, thermodynamic from solid, average
[9] = 2 minutes, readout pge2/pge2d4 area ratio
[10] = 2 minutes, readout pge2/pge2d4 area ratio, read-out: COX2 2 minutes pge2/pge2d4 area ratio Avg. IC50
[11] = 2 minutes, readout pge2 area (counts)
[12] = 2 minutes, readout pge2 area (counts), read-out: COX2 2 minutes pge2 area (counts) Avg. IC50
[13] = 10 minutes, readout pge2/pge2d4 area ratio
[14] = 10 minutes, readout pge2 area (counts)
[15] = 10 minutes, readout pge2 area (counts), read-out: COX2 10 minutes pge2 area (counts) Avg. IC50
[16] = 10 minutes, readout pge2/pge2d4 area ratio, average, read-out: COX1 10 minutes pge2/pge2d4 area ratio Avg. IC50
[17] = 10 minutes, readout pge2 area (counts), average, read-out: COX1 10 minutes pge2 area (counts) Avg. IC50

COc1ncc(OCc2cccs2)nc1-c1ccc(S(C)(=O)=O)cc1 [Compound 8]
COX2 2 minutes pge2/pge2d4 area ratio Avg. LLE [1, 9]: 5.399
IC50 [1, 10]: 6.59 nM
COX2 2 minutes pge2 area (counts) Avg. LLE [1, 11]: 5.446
IC50 [1, 12]: 7.15 nM
Mouse Plasma Protein Stability % Remaining Avg [2]: 92.8%

Cc1cc(CNc2cccc(-c3ccc(S(C)(=O)=O)cc3)n2)co1 [Compound 27]
IC50 [3]: 52000 nM
COX1 10 minutes pge2/pge2d4 area ratio Avg. LLE [3, 13]: 1.134
COX1 10 minutes pge2 area (counts) Avg. LLE [3, 14]: 1.134
COX2 2 minutes pge2/pge2d4 area ratio Avg. LLE [1, 9]: 4.789
IC50 [1, 10]: 13.3 nM
COX2 2 minutes pge2 area (counts) Avg. LLE [1, 11]: 4.853
IC50 [1, 12]: 10.9 nM
Rat Plasma Protein Stability % Remaining Avg [4]: 99.7%
fraction unbound [5]: 0.037
Human Microsome Stability % Remaining Avg [6]: 8.8%

COc1cc(NCc2cccs2)cc(-c2ccc(S(C)(=O)=O)cc2)n1 [Compound 32]
fraction unbound [7]: 0.015
COX2 2 minutes pge2/pge2d4 area ratio Avg. LLE [1, 9]: 4.433
IC50 [1, 10]: 15.5 nM
COX2 2 minutes pge2 area (counts) Avg. LLE [1, 11]: 4.493
IC50 [1, 12]: 14 nM
COX2 10 minutes pge2 area (counts) Avg. LLE [1, 14]: 5.338
IC50 [1, 15]: 2.5 nM
Mouse Plasma Protein Stability % Remaining Avg [2]: 100.9%

Cc1ccsc1CNc1cccc(-c2ccc(S(C)(=O)=O)cc2)n1 [Compound 7]
fraction unbound [7]: 0.015
IC50 [3]: 52000 nM
COX1 10 minutes pge2/pge2d4 area ratio Avg. LLE [3, 13]: 0.564
COX1 10 minutes pge2 area (counts) Avg. LLE [3, 14]: 0.564
COX2 2 minutes pge2/pge2d4 area ratio Avg. LLE [1, 9]: 4.522
IC50 [1, 10]: 6.36 nM
COX2 2 minutes pge2 area (counts) Avg. LLE [1, 11]: 4.509
IC50 [1, 12]: 7.11 nM
Mouse Plasma Protein Stability % Remaining Avg [2]: 97.8%

CN(Cc1cccs1)c1cncc(-c2ccc(S(C)(=O)=O)cc2)n1 [Compound 51]
fraction unbound [7]: 0.015
COX1 10 minutes pge2/pge2d4 area ratio Avg. LLE [3, 13]: 3.094
IC50 [3, 16]: 2930 nM
COX1 10 minutes pge2 area (counts) Avg. LLE [3, 14]: 3.234
IC50 [3, 17]: 2230 nM
COX2 2 minutes pge2/pge2d4 area ratio Avg. LLE [1, 9]: 5.185
IC50 [1, 10]: 23.9 nM
COX2 2 minutes pge2 area (counts) Avg. LLE [1, 11]: 5.211
IC50 [1, 12]: 23.2 nM
COX2 10 minutes pge2 area (counts) Avg. LLE [1, 14]: 6.088
IC50 [1, 15]: 3.57 nM
Mouse Plasma Protein Stability % Remaining Avg [2]: 109.5%

CS(=O)(=O)c1ccc(-c2cncc(SCc3ccoc3)n2)cc1 [Compound 12]
COX1 10 minutes pge2/pge2d4 area ratio Avg. LLE [3, 13]: 1.784
IC50 [3, 16]: 38500 nM
COX1 10 minutes pge2 area (counts) Avg. LLE [3, 14]: 1.801
IC50 [3, 17]: 37700 nM
solubility [8]: 7.4 µM (≈ 2.56 µg/mL)
COX2 2 minutes pge2/pge2d4 area ratio Avg. LLE [1, 9]: 5.445
IC50 [1, 10]: 8.44 nM
COX2 2 minutes pge2 area (counts) Avg. LLE [1, 11]: 5.417
IC50 [1, 12]: 9.78 nM
Rat Plasma Protein Stability % Remaining Avg [4]: 95%
fraction unbound [5]: 0.006

CS(=O)(=O)c1ccc(-c2cncc(SCc3cccs3)n2)cc1 [Compound 18]
fraction unbound [7]: 0.002
COX1 10 minutes pge2/pge2d4 area ratio Avg. LLE [3, 13]: 2.392
IC50 [3, 16]: 3140 nM
COX1 10 minutes pge2 area (counts) Avg. LLE [3, 14]: 2.308
IC50 [3, 17]: 4430 nM
COX2 2 minutes pge2/pge2d4 area ratio Avg. LLE [1, 9]: 4.93
IC50 [1, 10]: 9.99 nM
COX2 2 minutes pge2 area (counts) Avg. LLE [1, 11]: 5.018
IC50 [1, 12]: 8.22 nM
Mouse Plasma Protein Stability % Remaining Avg [2]: 103.7%

C[C@H](Oc1cncc(-c2ccc(S(C)(=O)=O)cc2)n1)c1cccs1 (single isomer, unassigned) [Compound 53]
fraction unbound [7]: 0.001
COX1 10 minutes pge2/pge2d4 area ratio Avg. LLE [3, 13]: 2.125
IC50 [3, 16]: 8610 nM
COX1 10 minutes pge2 area (counts) Avg. LLE [3, 14]: 2.0112
IC50 [3, 17]: 11700 nM
COX2 2 minutes pge2/pge2d4 area ratio Avg. LLE [1, 9]: 4.852
IC50 [1, 10]: 25 nM
COX2 2 minutes pge2 area (counts) Avg. LLE [1, 11]: 4.799
IC50 [1, 12]: 27.6 nM
Mouse Plasma Protein Stability % Remaining Avg [2]: 36.7%

CCOc1ncc(NCc2cccs2)nc1-c1ccc(S(C)(=O)=O)cc1 [Compound 25]
fraction unbound [7]: 0.015
IC50 [3]: 52000 nM
COX1 10 minutes pge2/pge2d4 area ratio Avg. LLE [3, 13]: 1.374
COX1 10 minutes pge2 area (counts) Avg. LLE [3, 14]: 1.374
COX2 2 minutes pge2/pge2d4 area ratio Avg. LLE [1, 9]: 5.041
IC50 [1, 10]: 11.8 nM
COX2 2 minutes pge2 area (counts) Avg. LLE [1, 11]: 4.857
IC50 [1, 12]: 19.6 nM
Mouse Plasma Protein Stability % Remaining Avg [2]: 93.1%

CS(=O)(=O)c1ccc(-c2cccc(OCc3ccco3)n2)cc1 [Compound 28]
IC50 [3]: 52000 nM
COX1 10 minutes pge2/pge2d4 area ratio Avg. LLE [3, 13]: 1.104
COX1 10 minutes pge2 area (counts) Avg. LLE [3, 14]: 1.104
COX2 2 minutes pge2/pge2d4 area ratio Avg. LLE [1, 9]: 4.722
IC50 [1, 10]: 13.6 nM
COX2 2 minutes pge2 area (counts) Avg. LLE [1, 11]: 4.78
IC50 [1, 12]: 12.6 nM
Rat Plasma Protein Stability % Remaining Avg [4]: 102.8%
fraction unbound [5]: 0.025
Human Microsome Stability % Remaining Avg [6]: 15%
